{"source": "patent US10570097B2", "about": "“Antimicrobial imidazolium compounds” (AGENCY FOR SCIENCE, TECHNOLOGY AND RESEARCH, priority 2014, dated 2020)", "key": {"[1]": {"system": "4 microbes (S. aureus, E. coli, P. aeruginosa, C. Albicans)", "assay": "MIC over the 4 microbes tested (geometric mean)", "format": "cell-based", "details": "geometric mean of the MICs of the 4 microbes", "protocol": "Staphylococcus aureus (ATCC 6538, gram-positive), Escherichia coli (ATCC 25922, gram-negative), Pseudomonas aeruginosa (gram-negative), and Candida albicans (ATCC 10231, yeast) were used as representative microorganisms to challenge the antimicrobial functions of the imidazolium salts. All bacteria and yeast were stored frozen at −80° C., and were grown overnight at 37° C. in Tryptic Soy broth (TSB) prior to experiments. Yeast was grown overnight at 22° C. in Yeast Mold (YM) broth. […] Typically, a 100 μL microbial solutions (containing 3×10^8 cells mL^−1) were added to 100 μL of PBS containing the test imidazolium salts (normally ranging from […] in serial two-fold dilutions) in each well of the 96-well microtiter plate. The plates were incubated at 37° C. for 24 h with shaking at 300 rpm, with monitoring at the 2, 4, 6, 8, and 24 h time points. […] Broth and PBS solution containing microbial cells alone were used as negative controls, and experiments were run in triplicates. The selectivity of the materials was also further assessed, by calculating the selectivity indices (SI), a measure and a comparison of safety and efficacies of each oligomer compound. […] Herein, the more stringent control of HC10 value was chosen over the HC50 value often reported in literature."}, "[2]": {"system": "P. aeruginosa", "assay": "Minimum inhibitory concentration by microdilution assay", "format": "cell-based, Pseudomonas aeruginosa", "details": "37° C., 24 h", "protocol": "(§1) Staphylococcus aureus (ATCC 6538, gram-positive), Escherichia coli (ATCC 25922, gram-negative), Pseudomonas aeruginosa (gram-negative), and Candida albicans (ATCC 10231, yeast) were used as representative microorganisms to challenge the antimicrobial functions of the imidazolium salts. All bacteria and yeast were stored frozen at −80° C., and were grown overnight at 37° C. in Tryptic Soy broth (TSB) prior to experiments. Yeast was grown overnight at 22° C. in Yeast Mold (YM) broth. Subsamples of these cultures were grown for 3 h further and diluted to give an optical density value of 0.07 at 600 nm, corresponding to 3×10^8 CFU mL^−1 (MacFarland's Standard).\n(§2) The oligomer compounds were dissolved in PBS at a concentration of 1 mg mL^1 and the minimal inhibitory concentrations (MICs) were determined by microdilution assay. Typically, a 100 μL microbial solutions (containing 3×10^8 cells mL^−1) were added to 100 μL of PBS containing the test imidazolium salts (normally ranging from […] in serial two-fold dilutions) in each well of the 96-well microtiter plate. The plates were incubated at 37° C. for 24 h with shaking at 300 rpm, with monitoring at the 2, 4, 6, 8, and 24 h time points. […] Broth and PBS solution containing microbial cells alone were used as negative controls, and experiments were run in triplicates."}, "[3]": {"system": "E. coli", "assay": "Time kill kinetics", "format": "cell-based, Escherichia coli", "details": "E. coli, 4MIC, two minutes", "protocol": "Time kill studies of the soligome compounds against E. coli were also studied. The experimental setup for time kill kinetics was similar to the set up for MBC determination. The microbes were treated with oligomer compounds at 4MIC concentration, and samples were taken out of each well at 2 minutes. 500 μl of cell suspension was removed, rescued by a series of 10-fold dilutions with growth medium, and kept on ice until plating. For plating, 50 μl to 200 μl of the diluted samples was spread on growth medium agar plates and colonies were counted after overnight incubation at 37° C."}, "[4]": {"system": "E. coli", "assay": "Minimum inhibitory concentration by microdilution assay", "format": "cell-based, Escherichia coli (ATCC 25922)", "details": "E. coli, 37° C., 24 h", "protocol": "as §1, §2"}, "[5]": {"system": "E. coli", "assay": "Minimum biocidal concentration / killing efficiency (24 h)", "format": "cell-based, Escherichia coli", "protocol": "(§3) To determine the minimum bacteriocidal concentration, the microbes were inoculated and prepared according to the procedure for MIC determination. […] The bacterial samples were taken out of each well after the aforementioned period, and subjected to a series of 10-fold dilutions. 20 uL of the diluted sample was then streaked across an agar plate, before incubation of the plate at 37° C. for 24 h. Colony forming units (CFU) were counted after overnight incubation, and the results were calculated according to the formula: [formula]"}, "[6]": {"assay": "Critical micellar concentration (pyrene fluorescent probe)", "format": "physicochemical", "details": "FIG. 4, deionized water", "protocol": "The CMC values of the oligomer compounds were determined in both deionised (DI) water and PBS, using a LS50B luminescence spectrometer (Perkin Elmer, United States) and employing pyrene as a fluorescent probe. A known weight of the oligomer compound was dissolved in either 2 mL of DI water or PBS in a 4 mL glass vial and serial dilutions were effected. 10 μL of pyrene stock solution in acetone (6.16×10^-5 M) was added to each vial containing 1 mL of a known concentration of the oligomer compound, and the acetone was then evaporated at room temperature. The solution was allowed to equilibrate overnight and the final concentration of pyrene in each vial was 6.16×10^-7 M. The excitation spectra of the solutions were scanned from 300 to 360 nm with an emission wavelength of 395 nm, and both the excitation and emission bandwidths were set at 2.5 nm. The intensity ratios ([…]/[…]) were plotted against polymer concentration. The CMC value was given by the intersection of the tangent to the curve at the inflection and the tangent of the points at low polymer concentrations."}, "[7]": {"system": "S. aureus", "assay": "Minimum biocidal concentration / killing efficiency (24 h)", "format": "cell-based, Staphylococcus aureus", "protocol": "as §3"}, "[8]": {"system": "rat red blood cells (RBCs)", "assay": "Hemolysis", "format": "cell-based", "details": "lowest concentration that induces 10% or more hemolysis; rat RBCs, 1 h, 37° C.; maximum tested 100,000 ppm", "protocol": "Before these materials can be used in systemic applications, selectivity of these materials for microbial cells over mammalian cells should also be considered. Such selectivity is often determined by observation of hemolysis. Hemolysis was performed in the following manner, fresh rat red blood cells (RBCs) were diluted with PBS buffer to give an RBC stock suspension (4 vol % blood cells). A 100 μL aliquot of RBC stock was added to a 96-well plate containing […] oligomer compound stock solutions of various concentrations (serial 2-fold dilution in PBS). After 1 h incubation at 37° C., The contents of each well was pipetted into a microcentrifuge tube and then centrifuged at 4000 rpm for 5 min. Hemolytic activity was determined as a function of hemoglobin release by measuring OD576 of […] of the supernatant. A control solution that contained only PBS was used as a reference for 0% hemolysis. 100% hemolysis was measured by adding 0.5% Triton-X to the RBCs. [formula] The selectivity of the materials was also further assessed, by calculating the selectivity indices (SI), a measure and a comparison of safety and efficacies of each oligomer compound. […] Herein, the more stringent control of HC10 value was chosen over the HC50 value often reported in literature."}, "[9]": {"system": "C. Albicans", "assay": "Minimum inhibitory concentration by microdilution assay", "format": "cell-based, Candida albicans (ATCC 10231)", "details": "24 h", "protocol": "as §1, §2"}, "[10]": {"assay": "Gelling properties in solvents (tube inversion test)", "format": "physicochemical", "protocol": "Gels were prepared by weighing the imidazolium oligomer compounds directly into 4 mL glass vials and subsequently adding a known weight or volume of the solvent. The vials containing both the imidazolium and the solvent were either vortexed or sonicated to ensure that the imidazolium was dissolved and dispersed thoroughly before being placed in a 4° C. fridge overnight. The tube inversion test method was used to examine gel formation in different solvents."}, "[11]": {"system": "S. aureus", "assay": "Minimum inhibitory concentration by microdilution assay", "format": "cell-based, Staphylococcus aureus (ATCC 6538)", "details": "37° C., 24 h", "protocol": "as §1, §2"}}, "data": [{"molecule": "CCCCCCCC[n+]1ccn(Cc2ccc(C[n+]3ccn(Cc4ccc(C[n+]5ccn(Cc6ccccc6Cn6cc[n+](Cc7ccc(Cn8cc[n+](Cc9ccc(Cn%10cc[n+](CCCCCCCC)c%10)cc9)c8)cc7)c6)c5)cc4)c3)cc2)c1.[Br-].[Br-].[Cl-].[Cl-].[Cl-].[Cl-]", "note": "[Compound 2]", "values": [{"measurement": "MIC GM", "setting": "[1]", "value": 9.51, "unit": "µg/mL"}, {"measurement": "MIC P.A.", "setting": "[2]", "value": 16, "unit": "µg/mL"}, {"measurement": "% kill", "setting": "[3]", "value": ">99.9", "unit": "%"}, {"measurement": "Log reduction", "setting": "[3]", "value": 3.11}, {"measurement": "MIC E. coli", "setting": "[4]", "value": 8, "unit": "µg/mL"}, {"measurement": "% killing", "setting": "[5]; 0.5 MIC", "value": 99.779, "unit": "%"}, {"measurement": "Log reduction", "setting": "[5]; 0.5 MIC", "value": "2.67 ± 0.128"}, {"measurement": "% killing", "setting": "[5]; 2 MIC", "value": ">99.999", "unit": "%"}, {"measurement": "Log reduction", "setting": "[5]; 2 MIC", "value": "7.19 ± 0.149"}, {"measurement": "% killing", "setting": "[5]; MIC", "value": ">99.999", "unit": "%"}, {"measurement": "Log reduction", "setting": "[5]; MIC", "value": "7.11 ± 0.123"}, {"measurement": "sharp point of inflection indicating the critical micellar concentrations", "setting": "[6]", "value": "not observed"}, {"measurement": "% killing", "setting": "[7]; 0.5 MIC", "value": 98.03, "unit": "%"}, {"measurement": "Log reduction", "setting": "[7]; 0.5 MIC", "value": "1.71 ± 0.032"}, {"measurement": "% killing", "setting": "[7]; 2 MIC", "value": ">99.999", "unit": "%"}, {"measurement": "Log reduction", "setting": "[7]; 2 MIC", "value": "13.38 ± 0.337"}, {"measurement": "% killing", "setting": "[7]; MIC", "value": ">99.999", "unit": "%"}, {"measurement": "Log reduction", "setting": "[7]; MIC", "value": "11.82 ± 0.067"}, {"measurement": "HC10", "setting": "[8]", "value": 12500, "unit": "ppm"}, {"measurement": "MIC C.A.", "setting": "[9]", "value": 16, "unit": "µg/mL"}, {"measurement": "State in solvent", "setting": "[10]; Acetone", "value": "Insoluble"}, {"measurement": "State in solvent", "setting": "[10]; Acetonitrile", "value": "Insoluble"}, {"measurement": "Concentration to form gel", "setting": "[10]; EtOH", "value": "(11 wt %)"}, {"measurement": "State in solvent", "setting": "[10]; EtOH", "value": "Gel"}, {"measurement": "State in solvent", "setting": "[10]; Ethylene glycol", "value": "Solution"}, {"measurement": "State in solvent", "setting": "[10]; Glycerol", "value": "Solution"}, {"measurement": "Concentration to form gel", "setting": "[10]; nBuOH", "value": "(11.3 wt %)"}, {"measurement": "State in solvent", "setting": "[10]; nBuOH", "value": "Gel"}, {"measurement": "Concentration to form gel", "setting": "[10]; nPrOH", "value": "(9.8 wt %)"}, {"measurement": "State in solvent", "setting": "[10]; nPrOH", "value": "Gel"}, {"measurement": "MIC S.A.", "setting": "[11]", "value": 4, "unit": "µg/mL"}]}]}
